Measured values published in patent publication US7238213B2, “Cell-based assays employing voltage and calcium dyes” (priority 2001, dated 2007).
≈ marks a conversion by molar mass, not a printed value. Entries after “also recorded” stand apart in the source; their conditions may differ. Like-named read-outs stand apart in the source and are kept apart here.

Experiments:
[1] = Solubility in water of dye quenchers; settings: for solubility: water, Solubility in Water
GCGR = target: T1, GCGR (Homo sapiens, UniProt P47871); experiment: CNG channel voltage dye assay with quencher dyes, cell line ASC0089 (GCGR); format: cell-based; settings: for Cell response to glucagon in the presence of the quencher dye: ASC0089, HLB30602 5 μM, 1 h at room temperature, FIG. 19; for Effect of quencher on glucagon potency: compared with other quenchers and MDC dye kit, FIG. 21, 22
T1 construct: expressed in transfected cells
T1 sequence (P47871 26-477, species assumed): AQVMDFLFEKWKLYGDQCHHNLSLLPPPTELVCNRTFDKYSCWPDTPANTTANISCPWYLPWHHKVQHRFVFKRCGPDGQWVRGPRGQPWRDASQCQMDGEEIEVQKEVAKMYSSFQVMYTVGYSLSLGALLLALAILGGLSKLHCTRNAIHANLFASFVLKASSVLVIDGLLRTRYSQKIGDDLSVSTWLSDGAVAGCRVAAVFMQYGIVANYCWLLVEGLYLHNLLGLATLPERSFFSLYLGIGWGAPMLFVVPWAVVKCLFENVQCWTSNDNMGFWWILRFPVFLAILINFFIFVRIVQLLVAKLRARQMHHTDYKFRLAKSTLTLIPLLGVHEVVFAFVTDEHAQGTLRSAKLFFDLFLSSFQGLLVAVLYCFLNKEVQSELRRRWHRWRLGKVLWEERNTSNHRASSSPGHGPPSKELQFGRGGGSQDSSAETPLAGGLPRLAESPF

A2B = target: T2, A2B (Homo sapiens, UniProt P29275); experiment: CNG channel voltage dye assay with quencher dyes, cell line ASC0097 (A2B); format: cell-based; settings: FIG. 20
T2 construct: endogenous in cells
T2 sequence (P29275 1-332): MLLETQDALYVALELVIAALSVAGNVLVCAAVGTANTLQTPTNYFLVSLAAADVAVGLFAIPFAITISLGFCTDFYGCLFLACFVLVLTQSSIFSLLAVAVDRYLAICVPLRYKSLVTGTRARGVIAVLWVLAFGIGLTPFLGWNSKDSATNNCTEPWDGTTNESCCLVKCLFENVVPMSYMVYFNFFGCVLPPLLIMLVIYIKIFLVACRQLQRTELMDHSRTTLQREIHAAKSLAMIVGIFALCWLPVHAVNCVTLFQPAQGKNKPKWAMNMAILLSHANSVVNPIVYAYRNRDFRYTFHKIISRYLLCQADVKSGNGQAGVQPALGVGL

cell membranes = experiment: Effect of EGTA in extracellular assay solution on baseline voltage dye fluorescence; format: cell-based; settings: CNG channel without pore mutation
20 ligand-receptor pairs = settings: quenchers for fluorescent voltage dyes
DP = target: T3, DP (Homo sapiens, UniProt Q13258); experiment: CNG channel voltage dye assay with quencher dyes, cell line ASC0093 (DP); format: cell-based
T3 construct: expressed in transfected cells; host or cells: cell line ASC0093 (CNG sensor line)
T3 sequence (Q13258 1-359): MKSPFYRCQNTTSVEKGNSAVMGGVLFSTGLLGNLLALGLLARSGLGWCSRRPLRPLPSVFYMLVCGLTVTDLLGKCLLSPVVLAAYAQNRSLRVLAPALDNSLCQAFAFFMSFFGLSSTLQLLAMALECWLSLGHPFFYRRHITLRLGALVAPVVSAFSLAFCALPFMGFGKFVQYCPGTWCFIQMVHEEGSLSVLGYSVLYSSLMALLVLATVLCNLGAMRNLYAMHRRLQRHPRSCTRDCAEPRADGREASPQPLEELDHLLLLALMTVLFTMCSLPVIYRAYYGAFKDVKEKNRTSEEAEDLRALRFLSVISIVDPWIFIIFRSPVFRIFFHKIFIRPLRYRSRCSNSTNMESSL

[2] = CNG channel voltage dye assay with quencher dyes, cell line ASC0097 (EP2); settings: NY & H30602
[3] = system: stably transformed cells expressing a CNG channel gene; experiment: CNG channel endpoint assay, 384 well, FLEXstation; format: cell-based; settings: 30 μM, 90 minutes after stimulation
Protocol: The CNG channel assay can also be used to perform endpoint assays. Decay of fluorescence responses results from desensitization of CNG channel was effectively removed by chelating extracellular calcium by EGTA and supplementing inhibitors of phosphodiesterase. Stably transformed cells expressing a CNG channel gene were seeded into 384 well plates and grown as described in previous examples. Forskolin was dissolved at a final concentration of 30 μM in Compound Buffer containing EGTA. Fluorescence intensity values of cells incubated with forskolin or with Compound Buffer only were read using FLEXstation (Molecular Devices) at different time points after forskolin stimulation.

[4] = CNG channel voltage dye assay with quencher dyes, cell line ASC0089 (Cyclase)
tyramine receptor = experiment: Tyramine receptor activation, CNG channel assay with membrane potential dye; format: cell-based; settings: HEK293 transient, FIG. 16
Protocol: In this example, activation of the tyramine receptor was examined using the CNG channel assay and compared with calcium fluorescence assays using Gα16 and Gαqs. Similar amounts of plasmids comprising CNG channel, Gα16 or Gαqs were used for transient expression in HEK293 cells also transiently expressing tyramine receptor. Calcium assays were performed following the protocol provided by Molecular Devices. For each concentration of tyramine, three recordings were made to obtain an average response in cells expressing Gα16, Gαqs and CNG channel respectively.

VIP2R = target: T4, VIP2R (Homo sapiens, UniProt P41587); experiment: CNG channel voltage dye assay with quencher dyes, cell line ASC0145 (VIP2R); format: cell-based; settings: ASC0145, compared with MDC dye kit R-8034, FIG. 23
T4 construct: expressed in transfected cells; host or cells: cell line ASC0145 (CNG sensor line)
T4 sequence (P41587 24-438): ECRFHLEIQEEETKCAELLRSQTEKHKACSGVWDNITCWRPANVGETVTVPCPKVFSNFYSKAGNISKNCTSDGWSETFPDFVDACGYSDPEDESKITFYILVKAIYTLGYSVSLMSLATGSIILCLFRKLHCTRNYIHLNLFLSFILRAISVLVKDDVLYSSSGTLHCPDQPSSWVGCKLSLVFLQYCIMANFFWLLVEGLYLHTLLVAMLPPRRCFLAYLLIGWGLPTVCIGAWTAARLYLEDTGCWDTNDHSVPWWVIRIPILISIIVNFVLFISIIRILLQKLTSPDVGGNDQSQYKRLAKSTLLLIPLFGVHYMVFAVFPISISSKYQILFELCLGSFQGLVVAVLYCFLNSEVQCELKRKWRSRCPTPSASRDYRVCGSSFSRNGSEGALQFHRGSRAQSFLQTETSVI

GIPR = target: T5, GIPR (Homo sapiens, UniProt P48546); experiment: CNG channel voltage dye assay with quencher dyes, cell line ASC0133 (GIPR); format: cell-based; settings: ASC0133, compared with MDC dye kit R-8034, FIG. 24
T5 construct: expressed in transfected cells; host or cells: cell line ASC0133 (CNG sensor line)
T5 sequence (P48546 22-466): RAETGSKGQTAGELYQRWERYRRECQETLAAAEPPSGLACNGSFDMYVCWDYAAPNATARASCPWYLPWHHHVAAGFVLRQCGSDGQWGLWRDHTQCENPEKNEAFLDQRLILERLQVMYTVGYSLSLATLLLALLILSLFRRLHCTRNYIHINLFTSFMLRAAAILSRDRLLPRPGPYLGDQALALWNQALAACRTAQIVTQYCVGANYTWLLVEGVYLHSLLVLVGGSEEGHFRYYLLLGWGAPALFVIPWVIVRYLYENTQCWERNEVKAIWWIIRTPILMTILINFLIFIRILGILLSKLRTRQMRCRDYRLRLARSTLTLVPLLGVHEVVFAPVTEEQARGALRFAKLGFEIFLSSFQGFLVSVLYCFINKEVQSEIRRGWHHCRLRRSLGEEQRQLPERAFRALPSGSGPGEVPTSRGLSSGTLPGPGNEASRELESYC

MC1R = MC1R (Homo sapiens, UniProt Q01726); settings: cell line ASC0179
Chain of MC1R (Q01726 whole entry, species assumed): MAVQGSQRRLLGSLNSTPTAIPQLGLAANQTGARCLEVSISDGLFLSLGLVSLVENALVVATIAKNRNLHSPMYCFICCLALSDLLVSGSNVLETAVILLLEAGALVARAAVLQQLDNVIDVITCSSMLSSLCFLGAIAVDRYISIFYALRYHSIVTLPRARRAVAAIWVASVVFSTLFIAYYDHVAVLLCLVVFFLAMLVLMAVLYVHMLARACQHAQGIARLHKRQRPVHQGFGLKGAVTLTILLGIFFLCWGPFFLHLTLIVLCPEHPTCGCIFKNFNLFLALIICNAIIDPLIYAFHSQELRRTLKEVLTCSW

Compound: O=S(=O)([O-])c1cc(O)c2c(/N=N/c3ccc(Nc4ccccc4)c4c(S(=O)(=O)[O-])cccc34)cc(S(=O)(=O)[O-])cc2c1.[Na+].[Na+].[Na+] [Acid Blue 92]
- Solubility in Water [1]: 40 mg/mL

Compound: O=S(=O)([O-])c1cccc(N=Nc2ccc(N=Nc3ccc(Nc4ccccc4)c4c(S(=O)(=O)[O-])cccc34)c3ccccc23)c1.[Na+].[Na+] [Acid Blue 113]
- Solubility in Water [1]: 40 mg/mL

Compound: CCN(CC)c1ccc(C(=C2C=CC(=[N+](CC)Cc3cccc(S(=O)(=O)[O-])c3)C=C2)c2ccc(N(CC)Cc3cccc(S(=O)(=O)[O-])c3)cc2)cc1.[Na+] [Acid Violet 17]
- Cell response to glucagon in the presence of the quencher dye (GCGR): abolished
- Solubility in Water [1]: 30 mg/mL

Compound: O.O=C1c2ccccc2C(=O)c2c1cc(S(=O)(=O)[O-])c(O)c2O.[Na+] [Alizarin Red S monohydrate]
- Solubility in Water [1]: 20 mg/mL

Compound: CC(=O)Nc1ccc(S(=O)(=O)[O-])c2cc(S(=O)(=O)[O-])c(N=Nc3ccc(N=Nc4ccc(S(=O)(=O)[O-])cc4)c4ccc(S(=O)(=O)[O-])cc34)c(O)c12.[Na+].[Na+].[Na+].[Na+] [Brilliant Black BN]
- Solubility in Water [1]: 30 mg/mL

Compound: O=S1(=O)OC(c2cc(Cl)c(O)c(Br)c2)(c2cc(Cl)c(O)c(Br)c2)c2ccccc21 [Bromochlorophenol Blue]
- Solubility in Water [1]: 20 mg/mL (≈ 34.4 mM)

Compound: O=S1(=O)OC(c2cc(Br)c(O)c(Br)c2)(c2cc(Br)c(O)c(Br)c2)c2ccccc21 [Bromophenol Blue]
- Interference of quencher with response to glucagon stimulation (GCGR; FIG. 21): interfered
- Suitability of quencher for assay of adenosine receptor A2B responses to NECA (A2B): reduced NECA response without affecting NECA potency
- Solubility in Water [1]: 30 mg/mL (≈ 44.8 mM)

Compound: O=c1c(Br)cc2c(-c3ccccc3S(=O)(=O)O)c3cc(Br)c(O)c(O)c3oc-2c1O [Bromopyrogallol Red]
- solubility [1]: 5 mg/mL (≈ 8.96 mM)

Compound: O=S1(=O)OC(c2ccc(O)c(Cl)c2)(c2ccc(O)c(Cl)c2)c2ccccc21 [Chlorophenol Red]
- Solubility in Water [1]: 30 mg/mL (≈ 70.9 mM)

Compound: O=C(O)CN(CCOCCOCCN(CC(=O)O)CC(=O)O)CC(=O)O [EGTA]
- fluorescence increase over baseline (cell membranes): about 40%

Compound: Cc1cc(-c2ccc(/N=N/c3c(S(=O)(=O)O)cc4cc(S(=O)(=O)O)cc(N)c4c3O)c(C)c2)ccc1/N=N/c1c(S(=O)(=O)O)cc2cc(S(=O)(=O)O)cc(N)c2c1O [HLB30702 (Trypan Blue), Trypan Blue]
- Interference of quencher with response to glucagon stimulation (GCGR; FIG. 21): interfered
- Suitability of quencher for assay of adenosine receptor A2B responses to NECA (A2B): suitable
- Solubility in Water [1]: >20 mg/mL

Compound: CCN(CC)c1ccc2nc3ccc(N)cc3[n+](-c3ccccc3)c2c1.[Cl-] [Methylene Violet 3Rax]
- Solubility in Water [1]: 10 mg/mL

Compound: CC1=CC(=C(c2ccc(N)c(C)c2)c2ccc(N)c(C)c2)C=CC1=N.Cl [New Fuchsin]
- Solubility in Water [1]: 20 mg/mL

Compound: Nc1c(N=Nc2ccc([N+](=O)[O-])cc2)c(S(=O)(=O)[O-])cc2cc(S(=O)(=O)[O-])cc(O)c12.[Na+].[Na+] [Nitro Red]
- Solubility in Water [1]: 40 mg/mL
- effect of quencher on responses of peptides and other small organic molecules (20 ligand-receptor pairs): little effect

Compound: CCCCC[C@H](O)/C=C/[C@H]1C(=O)C[C@H](O)[C@@H]1C/C=C\CCCC(=O)O [PGD2, Prostaglandin D2]
- EC50 (DP; MDC dye): 0.018 nM
- maximal response Fmax/Fb (DP; MDC dye): 4.4
- EC50 (DP; NY & H30602): 0.0078 nM
- maximal response Fmax/Fb (DP; NY & H30602): 4.2

Compound: CCCCC[C@H](O)/C=C/[C@H]1[C@H](O)CC(=O)[C@@H]1CCCCCCC(=O)O [PGE1, Prostaglandin E1]
- EC50 [2]: 40 nM
- maximal response Fmax/Fb [2]: 5.3

Compound: O=S(=O)([O-])c1cc(O)c(N=Nc2c(O)ccc3ccccc23)c2ccccc12.[Na+] [Palatine Chrome Black 6BN (Calcon)]
- Solubility in Water [1]: 30 mg/mL

Compound: Cc1cc(-c2ccc(/N=N/c3c(S(=O)(=O)O)cc4cc(S(=O)(=O)O)cc(N)c4c3O)c(C)c2)ccc1/N=N/c1c(S(=O)(=O)O)cc2cc(S(=O)(=O)O)cc(N)c2c1O [Trypan Blue (Fluka), Trypan Blue]
- Effect of quencher on maximal responses to glucagon (GCGR; FIG. 21): did not inhibit maximal responses
- Interference of quencher with response to glucagon stimulation (GCGR; FIG. 21): interfered
- Effect of quencher on glucagon potency (GCGR; listed as Trypan blue): reduced glucagon potency by about one order
- Effect of quencher on glucagon potency (GCGR; listed as trypan blue): significantly reduced glucagon potency
- Suitability of quencher for assay of adenosine receptor A2B responses to NECA (A2B): suitable
- solubility [1]: ~10 mg/mL (≈ 11.5 mM)

Compound: C=C[C@@]1(C)CC(=O)[C@]2(O)[C@@]3(C)[C@@H](O)CCC(C)(C)[C@@H]3[C@H](O)[C@H](OC(C)=O)[C@@]2(C)O1 [forskolin]
- increase of fluorescence intensity versus buffer control [3]: 2.8 fold
- fluorescence intensity ([3]; n=192): 5.3±0.5×10^5 RFU
- EC50 ([4]; MDC dye): 230 nM
- maximal response Fmax/Fb ([4]; MDC dye): 5.3
- EC50 ([4]; NY & H30602): 160 nM
- maximal response Fmax/Fb ([4]; NY & H30602): 5.1

Compound: NCCc1ccc(O)cc1 [tyramine]
- tyramine receptor activation (tyramine receptor): detectable

Compound: DIAZINE BLACK
- Cell response to glucagon in the presence of the quencher dye (GCGR): abolished

Compound: Direct Violet 51
- Solubility in Water [1]: 20 mg/mL

Compound: Nitrazine Yellow
- Effect of quencher on glucagon potency (GCGR): Glucagon potency increased
- Effect of quencher on VIP potency (VIP2R): left-shifted by about one order of magnitude; also recorded: increased using nitrazine yellow as a quencher by more than one order
- Effect of quencher on GIP potency (GIPR): left-shifted by about one order of magnitude; also recorded: increased using nitrazine yellow as a quencher by one order
- Solubility in Water [1]: 20 mg/mL
- effect of quencher on responses of peptides and other small organic molecules (20 ligand-receptor pairs): little effect

Compound: Sulfonazo II
- Solubility in Water [1]: 40 mg/mL

Compound: α-MSH
- maximal response Fmax/Fb (MC1R; MDC dye): 5
- maximal response Fmax/Fb (MC1R; TB & H30602): 5.1
